Reference: patent publication EP4725957A1, “GROUP OF CYCLIC ALKALINE LIPOPEPTIDE COMPOUNDS, AND PREPARATION METHOD THEREFOR AND USE THEREOF” (Institute of Medicinal Biotechnology, Chinese Academy of …, priority 2023, dated 2024)
Converted amounts (≈) assume the structure as drawn. Like-named read-outs stand apart in the source and are kept apart here. Bridge positions count the residues as written; N and C are the ends. Square brackets hold non-standard residues; d marks the D form. Peptide text beside a SMILES is read from it. * marks the point of attachment. Dab(CH2SO3H) = N[C@@H](CCNCS(=O)(=O)O)C(=O)O; Heptanoyl(6-Me) = CC(C)CCCCC(=O)*; Nonanoyl = CCCCCCCCC(=O)*; dDap = NC[C@@H](N)C(=O)O; Dab = NCC[C@H](N)C(=O)O; Dap = NC[C@H](N)C(=O)O

Key:
[1] = system: Escherichia coli ATCC BAA-2340 (KPC); format: cell-based
In short: (§1)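 MIC by CLSI broth microdilution; MH broth; final drug 64–0.03 mg/L, 2-fold; inoculum (2-4) × 10^5 CFU/mL from 0.5 McFarland suspension of 18-24 h colonies; 35-37°C, 16-20 h; growth controls included.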

[2] = system: Klebsiella pneumoniae KPN+19-15; format: cell-based
In short: as §1

[3] = system: Acinetobacter baumannii NCTC 13304 (OXA-27); format: cell-based
In short: as §1

[4] = system: Acinetobacter baumannii ABA19-1; format: cell-based
In short: as §1

[5] = system: Escherichia coli ATCC BAA-2523; format: cell-based
In short: as §1

[6] = system: Klebsiella pneumoniae ATCC BAA-1705 (KPC); format: cell-based
In short: as §1

[7] = system: Pseudomonas aeruginosa ATCC 27853; format: cell-based
In short: as §1

[8] = system: Pseudomonas aeruginosa PAE19-3; format: cell-based
In short: as §1

[9] = system: Pseudomonas aeruginosa ATCC27853; test: In vivo antibacterial (protection) test in infected mice; details: infected ICR mice, 7 days observation
Description: Pseudomonas aeruginosa ATCC27853 was selected for the determination of in vivo antibacterial activity.
One day before infection, the test bacteria were inoculated onto the corresponding nutrient agar plates and cultured overnight. On the day of infection, single colonies grown on the plates were picked and suspended in sterile normal saline, and the suspension was mixed thoroughly to obtain the original bacterial solution. The bacterial solution was then adjusted to the required concentration with 5% dried yeast powder and prepared freshly prior to use.
Healthy ICR mice were randomly divided into groups, with 5 mice per group, half male and half female. Bacterial solutions of different dilutions were aspirated and injected intraperitoneally into mice at a volume of 0.5 mL per 20 g of body weight. The mortality of mice was recorded within 7 days after infection. The minimum bacterial dose causing 100% mortality in mice was defined as the minimum lethal dose (MLD), which was used as the infection dose for the in vivo protection test.
Drug administration was performed via tail vein injection at 2 h, 8 h, 24 h, and 30 h after infection, with a total of 4 administrations, and the administration volume was 20 mL/kg. For the preparation of drug solutions, Compound 7, together with the control drugs polymyxin B and meropenem, were dissolved in normal saline to the required concentrations for tail vein injection, and all solutions were prepared freshly prior to use.
In the preliminary test, the drug dose concentrations that caused 100% mortality and no mortality in mice after infection with the tested bacteria were determined. Based on this dose range, 4-5 dose groups were established, with a dose ratio of 1:0.5 to 1:0.8 between adjacent groups.
Mice were randomly grouped according to body weight, with 8 mice per group (half male and half female). Each mouse was intraperitoneally infected with the test bacterial solution at a volume of 0.5 mL per 20 g of body weight, followed by tail vein injection at 2 h, 8 h, 24 h, and 30 h after infection. Mice in the blank control group were not infected with bacterial solution but were only given an equal volume of vehicle at an administration volume of 20 mL/kg. The mortality of mice was observed and recorded for 7 consecutive days.
The minimum lethal bacterial concentration of Pseudomonas aeruginosa ATCC27853 for intraperitoneal infection in mice was 4.2 × 10^2 CFU/mL, which was used as the infection dose in the formal test.
Mice in the infection control group were intraperitoneally inoculated with Pseudomonas aeruginosa ATCC27853 bacterial solution at the MLD concentration ([…]). Infection symptoms began to appear 3-4 hours after inoculation, and all 8 animals died within 48 hours (8/8), with a mortality rate of 100%.

[10] = Nephrotoxicity assay: in vitro cytotoxicity of HK-2 cells by CCK-8 assay; format: cell-based; details: human, HK-2 cells (human renal), 72 h incubation with drug-containing medium
In short: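 Compounds in sterile water, diluted to final 500, 250, 200, 100, 50, 25 and 12.5 µg/mL, were applied for 72 h to human HK-2 kidney cells. Absorbance at 450 nm after 3 h CCK-8 gave viability against untreated wells, and IC50 came from logarithmic regression; three replicates.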

Healthy ICR mice = test: Acute toxicity test in healthy mice, single tail vein injection; format: in vivo; details: within 7 days
Protocol: (§2) Healthy ICR mice aged 5-6 weeks were selected, with 5-10 mice in each group, and administered via a single tail vein injection at an administration volume of 20 mL/kg. In the preliminary test, the drug dose concentrations that caused 100% mortality and no mortality in mice after a single intravenous injection were determined. Based on this dose range, 4-5 dose groups were set up, with a dose ratio of 1:0.5 to 1:0.8 between adjacent groups. The mortality of animals within 7 days after administration was recorded. According to the mortality rate of experimental animals in each group, the median lethal dose (LD50) of the test samples, i.e., the dose causing 50% mortality of the tested animals, was calculated by the Bliss method.

[11] = as above; format: in vivo; details: mouse, in vivo, iv; ICR mice, single tail vein injection, Bliss method
Protocol: as §2

[12] = Escherichia coli ATCC BAA-2340 (KPC)
[13] = Klebsiella pneumoniae KPN 19-15
[14] = Acinetobacter baumannii NCTC 13304 (OXA-27)
[15] = Acinetobacter baumannii ABA19-1
[16] = Klebsiella pneumoniae ATCC BAA-1705 (KPC)
[17] = Pseudomonas aeruginosa ATCC27853

Row | Compound | MIC [1, 12] [µg/mL] | MIC [2, 13] [µg/mL] | MIC [3, 14] [µg/mL] | MIC [4, 15] [µg/mL] | MIC ([5]; Escherichia coli ATCC BAA-2523) [µg/mL] | MIC [6, 16] [µg/mL] | MIC [7, 17] [µg/mL] | MIC ([8]; Pseudomonas aeruginosa PAE19-3) [µg/mL] | IC50 at 72 h [10] [µg/mL] | MIC ([1]; ATCC BAA-2340) [µg/mL] | MIC ([2]; KPN+19-15) [µg/mL] | MIC ([3]; NCTC 13304) [µg/mL] | MIC ([4]; ABA19-1) [µg/mL] | MIC ([5]; ATCC BAA-2523) [µg/mL] | MIC ([6]; ATCC BAA-1705) [µg/mL] | MIC ([7]; ATCC 27853) [µg/mL] | MIC ([8]; PAE19-3) [µg/mL] | other results
1 | Polymyxin B [reference compound] | 0.03 | 0.125 | 0.06 | 0.25 | 0.03 | 0.125 | 0.25 | 0.25 |  |  |  |  |  |  |  |  |  | mortality rate ([9]; 0.7 mg/kg tail vein twice daily for 2 days): 100%; mortality rate ([9]; 1.0 mg/kg tail vein twice daily for 2 days): 100%; mortality rate ([9]; 1.4 mg/kg tail vein twice daily for 2 days): 87.5%; mortality rate ([9]; 2 mg/kg tail vein twice daily for 2 days): 62.5%
2 | CC(C)CCCCC(=O)N[C@@H](CCN)C(=O)N[C@H](C(=O)N[C@H](CN)C(=O)N[C@H]1CCNC(=O)[C@H]([C@@H](C)O)NC(=O)[C@H](CCN)NC(=O)[C@H](CCN)NC(=O)[C@H]([C@@H](C)O)NC(=O)[C@@H](Cc2ccccc2)NC(=O)[C@H](CCN)NC1=O)[C@@H](C)O [Compound 2, 6-methylheptanoyl-Dab-Thr-D-Dap-ring(4-10)[Dab-Dab-D-Phe-Thr-Dab-Dab-Thr]] ({Heptanoyl(6-Me)}-[Dab]T[dDap][Dab][Dab][dF]T[Dab][Dab]T; lactam 4-C) | ≤0.03 | ≤0.03 | ≤0.03 | ≤0.03 | ≤0.03 | ≤0.03 | ≤0.03 | 0.125 (≈ 0.107 µM) | > 500 |  |  |  |  |  |  |  |  | mortality rate (Healthy ICR mice; single tail vein injection 15.36 mg/kg): 0%; mortality rate (Healthy ICR mice; single tail vein injection 19.2 mg/kg): 25%; mortality rate (Healthy ICR mice; single tail vein injection 24 mg/kg): 62.5%; mortality rate (Healthy ICR mice; single tail vein injection 30 mg/kg): 100%; LD50 at 168 h [11]: 22 mg/kg
3 | CC(C)CCCCC(=O)N[C@@H](CCN)C(=O)N[C@H](C(=O)N[C@@H](CN)C(=O)N[C@H]1CCNC(=O)[C@H]([C@@H](C)O)NC(=O)[C@H](CCN)NC(=O)[C@H](CCNCS(=O)(=O)O)NC(=O)[C@H]([C@@H](C)O)NC(=O)[C@@H](Cc2ccccc2)NC(=O)[C@H](CCN)NC1=O)[C@@H](C)O [Compound 119, 6-methylheptanoyl-Dab-Thr-Dap-ring(4-10)[Dab-Dab-D-Phe-Thr-Dab(CH2SO3H)-Dab-Thr]] ({Heptanoyl(6-Me)}-[Dab]T[Dap][Dab][Dab][dF]T[Dab(CH2SO3H)][Dab]T; lactam 4-C) |  |  |  |  |  |  |  |  | > 500 | 0.06 (≈ 0.0477 µM) | 0.125 (≈ 0.0994 µM) | 0.06 (≈ 0.0477 µM) | 0.25 (≈ 0.199 µM) | 0.06 (≈ 0.0477 µM) | 0.125 (≈ 0.0994 µM) | 0.25 (≈ 0.199 µM) | 0.5 (≈ 0.398 µM) | 
4 | CCCCCCCCC(=O)N[C@@H](CCN)C(=O)N[C@H](C(=O)N[C@H](CO)C(=O)N[C@H]1CCNC(=O)[C@H]([C@@H](C)O)NC(=O)[C@H](CCN)NC(=O)[C@H](CCN)NC(=O)[C@H]([C@@H](C)O)NC(=O)[C@@H](Cc2ccccc2)NC(=O)[C@H](CN)NC1=O)[C@@H](C)O [Compound 65, Nonanoyl-Dab-Thr-D-Ser-ring(4-10)[Dab-Dap-D-Phe-Thr-Dab-Dab-Thr]] (Nonanoyl-[Dab]T[dS][Dab][Dap][dF]T[Dab][Dab]T; lactam 4-C) |  |  |  |  |  |  |  |  | 370 ± 31.8 (≈ 318 µM) | 0.25 (≈ 0.215 µM) | 0.5 (≈ 0.429 µM) | 0.25 (≈ 0.215 µM) | 0.25 (≈ 0.215 µM) | 0.25 (≈ 0.215 µM) | 0.25 (≈ 0.215 µM) | 64 (≈ 55 µM) | 8 (≈ 6.87 µM) | 
